Laboratory results taken from patent publication US5885961A, “Methods of using epithelins to modulate cell proliferation” (Bristol-Myers Squibb Company, priority 1995, dated 1999).
pIC50: −log10 of the molar value. “Also recorded” adds a separate entry of the source.

Key:
[1] = system: Balb/MK cells; experiment: Murine keratinocyte growth assay (cell count); assay type: cell-based; details: for effect on growth of Balb/MK cells (rodent keratinocytes): FIG. 16A
Method: FIG. 16(A-B). (FIG. 16A) Effect of epithelin 1 and epidermal growth factor (EGF) on the growth of Balb/MK cells. Assays were performed as described in Section 6.2., infra. .circle-solid., epithelin 1; o, EGF (FIG. 16B) Effect of various concentrations of epithelin 2 on the epithelin 1 (20 ng/ml) induced growth of murine keratinocytes.
Balb/MK cells were plated at 1×10^4 cells per well in 1 ml of low calcium medium (Weissman and Aaronson, 1983, Cell 32:599-606; Carpenter and Zendegut, 1985, Anal. Biochem. 153:279-282) in 24-well Costar plates and incubated at 37° C. for 4-6 hours. Then media were removed and replaced with 1 ml of medium containing various concentrations of the test compound in triplicate. The control wells received only medium without any test material. The plates were incubated at 37° C. for 4 days, then medium was removed, wells were rinsed two times with 1 ml of phosphate-buffered saline, and the cells were detached with trypsin-EDTA and counted.

[2] = system: NRK-SA6 cells; details: in the presence of TGFβ; Roberts et al., 1981; cited from earlier work
[3] = system: human colon carcinoma cell line HCT 116; experiment: 125I-deoxyuridine incorporation into DNA, HCT 116; assay type: cell-based; details: maximum dose tested: 20 ng/ml epithelin 1, 270 ng/ml epithelin 2
[4] = molecular target: EGF receptors (Homo sapiens, UniProt P00533); experiment: Binding of 125I-EGF to its receptors
[5] = Resistance of bioactivity to chemical, heat and enzyme treatment; assay type: physicochemical
Method: Epithelin 1 and epithelin 2 are resistant to treatment with 1M acetic acid, 1M ammonium hydroxide, 6M urea, 0.01M sodium metaperiodate, to heating at 56° C. for 30 minutes, and to treatment with various glycosidases or lipases. However, epithelin activity was sensitive to reduction, to reduction and 4-vinylpyridine treatment, and to digestion with proteinases such as trypsin, endoproteinase Lys-C, and endoproteinase Glu-C (V8).

[6] = system: NRK-SA6 cells; experiment: Soft agar colony assay in the presence of TGFβ; assay type: cell-based, rat
Method: FIG. 17. Effect of epithelin 1 and 2 on NRK-SA6 cell colony formation in soft agar in the presence of TFGβ (1 ng/ml). The colony formation assay used is described in Section 6.2.3, infra. Solid bars, epithelin 1; stippled bar, epidermal growth factor; open bar, epithelin 2; hatched bar, 20 ng/ml epithelin 1 plus 500 ng/ml epithelin 2.
A 0.38 ml base layer of 0.5% agar (Agar Noble; Difco Laboratories, Detroit, Mich.) in DMEM containing 10% heat inactivated FBS was added to 24 well Costar tissue culture plates. 0.38 ml of 0.3% agar containing the same medium-FBS mixture, 6-12×10^3 test cells, and the test proteins at various concentrations were overlaid on the basal layer of agar. The plates were incubated at 37° C. in a humidified atmosphere of 5% CO2 in air. Colonies were enumerated unfixed and unstained, and the number of colonies was scored between days 7 and 10. Colonies were defined as a cluster of at least eight cells.

[7] = system: monkey kidney COS1 cells; experiment: 125I-deoxyuridine incorporation into DNA, COS1; assay type: cell-based
[8] = system: A431 human epidermoid carcinoma cells; experiment: Cell growth inhibitory activity (GIA), 125I-deoxyuridine incorporation into DNA; assay type: cell-based
Method: The cell growth inhibitory activity (GIA) assays were performed in flat-bottom 96 well plates (Falcon 3072). Human epidermoid carcinoma of vulva cells (A431) were used as test cells for GIA. 3.5×10^3 cells in 50 μl of test medium (DMEM supplemented with 5% heat inactivated fetal bovine serum (FBS), penicillin/streptomycin (PS) and glutamine) were placed in all wells except peripheral wells. The peripheral wells received 50 μl PBS. Three hours later, 50 μl of test sample in test medium was added to each well, while control wells received only 50 μl of test medium. Three wells were used for each concentration of test sample. Plates were incubated at 37° C. for 2-3 days. Then, 100 μl of a solution of […] (^125 I-IUdR, 4Ci/mg-0.5 mCi/ml, 2 μl/ml in test medium) was added to each well and plates were incubated at 37° C. After 4-6 hours, the medium was aspirated from the wells, which were then washed once with 200 μl PBS. Then, 200 μl methanol was added to each well, plates were incubated for 10 minutes at room temperature, and the methanol was removed by aspiration. 200 μl of 1M sodium hydroxide was added to each well, the plates were incubated for 30 minutes at 37° C. Sodium hydroxide was removed with titertek plugs (Flow Labs). The plugs were transferred into 12×75 mm plastic tubes and counted in a gamma counter to quantify ^125 I-IUdR incorporation.

[9] = system: mink lung CCL 64 cells; experiment: 125I-deoxyuridine incorporation into DNA, CCL 64; assay type: cell-based
[10] = system: Balb/MK cells; experiment: Growth stimulatory activity (GSA), 125I-deoxyuridine incorporation into DNA of murine keratinocytes; assay type: cell-based
Method: FIG. 15(A-B). (FIG. 15A) Effect of epithelin 1 and epithelin 2 on the stimulation of ^125 I-deoxyuridine incorporation into DNA of the murine keratinocyte cell line Balb/MK. 2,000-4,000 cells were plated per well in 96 well plates in low-calcium medium containing 5% dialyzed FBS. Then GSA assays were performed as described in Section 6.2., infra. .circle-solid., epithelin 1; o, epithelin 2. (FIG. 15B) Effect of various concentrations of epithelin 2 on epithelin 1 (20 ng/ml) elicited incorporation of ^125 I-deoxyuridine into DNA of Balb/MK cells.
Balb/MK cells were also used as indicator cells in 96 well plates to assess the growth inhibitory activity (GIA) or growth stimulatory activity (GSA) of a test material using ^125 I-deoxyuridine incorporation into DNA as described in the previous section.

[11] = system: NRK cells; experiment: Mitogenic activity on NRK cells in monolayer; assay type: cell-based, rat
[12] = system: human fibroblasts and several other human tumor cells; experiment: 125I-deoxyuridine incorporation into DNA, human fibroblasts and other human tumor cells; assay type: cell-based; details: maximum dose tested: 20 ng/ml epithelin 1, 270 ng/ml epithelin 2

Substance	effect on growth of Balb/MK cells (rodent keratinocytes) [1]	anchorage-independent growth of rat kidney cells NRK-SA6 [2]	pIC50 ([1]; epithelin 1 20 ng/ml, FIG. 16B, read-out: 50% inhibition of epithelin 1-induced growth of Balb/MK cells)	effect on growth of HCT 116 cells [3]	effect on binding of 125I-EGF to its receptors [4]	resistance to 1M acetic acid, 1M ammonium hydroxide, 6M urea, 0.01M sodium metaperiodate, heating at 56° C. for 30 minutes, glycosidases or lipases [5]	sensitivity of activity to reduction, reduction and 4-vinylpyridine treatment, and proteinases (trypsin, Lys-C, Glu-C) [5]	inhibition of epithelin 1-induced colony formation in soft agar ([6]; epithelin 2 at ~85 nM, epithelin 1 20 ng/ml)	anchorage-independent growth (colony formation in soft agar) of NRK cells ([6]; in the presence of TGFβ 1 ng/ml, FIG. 17)	effect on 125I-deoxyuridine incorporation into DNA [7]	50% inhibition of DNA synthesis (125I-deoxyuridine incorporation) ([8]; A431 cells, purified protein, FIG. 14)	pIC50 ([8]; A431 cells, read-out: concentration for 50% inhibition of 125I-deoxyuridine incorporation)	Specific Activity ([8]; final purification step Anal TSK-250 (Table III))	specific activity of purified protein (GIA) ([8]; one unit = amount inhibiting 125I-deoxyuridine incorporation into A431 cells by 50%)	effect on 125I-deoxyuridine incorporation into DNA [9]	pIC50 ([10]; Balb/MK cells, epithelin 1 20 ng/ml, FIG. 15B, read-out: 50% inhibition of epithelin 1 elicited 125I-deoxyuridine incorporation)	effect on 125I-deoxyuridine incorporation into DNA of Balb/MK cells ([10]; FIG. 15A)	mitogenic activity on NRK cells in monolayer [11]	effect on human fibroblasts and several other human tumor cells [12]
EGF: epidermal growth factor, comparison growth factor (NSDSECPLSHDGYCLHDGVCMYIEALDKYACNCVVGYIGERCQYRDLKWWELR; UniProt P01133 971-1023, looked up) [reference compound]	did not proliferate in the absence of EGF or epithelin 1	induces anchorage-independent growth	–	–	–	–	–	–	–	–	–	–	–	–	–	–	–	–	–
TGFα: transforming growth factor-α	–	induces anchorage-independent growth	–	–	–	–	–	–	–	–	–	–	–	–	–	–	–	–	–
epithelin 2: single chain polypeptide of 57 amino acid residues, 12 cysteines, purified from rat kidney; antagonizes epithelin 1 growth stimulation (VVCPDAKTQCPDDSTCCELPTGKYGCCPMPNAICCSDHLHCCPQDTVCDLIQSKCIS)	did not exhibit any significant effect; also recorded: no effect	–	~8.15	did not show any effect	Neither epithelin 1 nor epithelin 2 significantly affected the binding	stable; also recorded: resistant	sensitive	about 50%	did not; also recorded: no effect	significantly inhibited	450 ng/well	~6.12	3,810 Units/mg	3.8×10^3 units/mg protein	significantly inhibited	~7.68	did not show any significant effect	not	Neither protein exhibited any significant effect
